Experimental data as given in US10479780B2, “Aminopyrazole derivatives” (Chugai Seiyaku Kabushiki Kaisha, priority 2015, dated 2019).

How the values were obtained:
Assay type in all cases: biochemical
[1] = biological target: T1, human Yes1 enzyme (Homo sapiens, UniProt P07947); test: Yes1 enzyme inhibitory activity (time-resolved fluorometry, biotinylated peptide phosphorylation); details: read-out: YES_IC50
T1 construct: made in house
How it was run: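 Inhibition was expressed against a compound-free control to give IC50, using TR-FRET read-out (Eu-cryptate anti-pTyr antibody, streptavidin-XL665).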

[2] = biological target: T2, human Src enzyme (Homo sapiens, UniProt P12931); test: Src enzyme inhibitory activity (time-resolved fluorometry, biotinylated peptide phosphorylation); details: read-out: SRC_IC50
T2 construct: purchased Carna Biosciences, Inc. 08-173
How it was run: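 Compounds were tested for blocking tyrosine phosphorylation of a biotinylated peptide substrate by recombinant human Src. Phosphorylated product was quantified by time-resolved fluorometry using europium cryptate and XL665 conjugates, and IC50 was calculated against the compound-free control.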

[3] = biological target: T3, human Lck enzyme (Homo sapiens, UniProt P06239); test: Lck enzyme inhibitory activity (time-resolved fluorometry, biotinylated peptide phosphorylation); details: read-out: LCK_IC50
T3 construct: purchased Carna Biosciences, Inc. 08-170
How it was run: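 Readout pairs a europium cryptate-labelled anti-phosphotyrosine antibody with XL665-streptavidin, measured by time-resolved fluorescence. IC50 derived from percent inhibition against untreated controls.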

T1 sequence (P07947 whole entry): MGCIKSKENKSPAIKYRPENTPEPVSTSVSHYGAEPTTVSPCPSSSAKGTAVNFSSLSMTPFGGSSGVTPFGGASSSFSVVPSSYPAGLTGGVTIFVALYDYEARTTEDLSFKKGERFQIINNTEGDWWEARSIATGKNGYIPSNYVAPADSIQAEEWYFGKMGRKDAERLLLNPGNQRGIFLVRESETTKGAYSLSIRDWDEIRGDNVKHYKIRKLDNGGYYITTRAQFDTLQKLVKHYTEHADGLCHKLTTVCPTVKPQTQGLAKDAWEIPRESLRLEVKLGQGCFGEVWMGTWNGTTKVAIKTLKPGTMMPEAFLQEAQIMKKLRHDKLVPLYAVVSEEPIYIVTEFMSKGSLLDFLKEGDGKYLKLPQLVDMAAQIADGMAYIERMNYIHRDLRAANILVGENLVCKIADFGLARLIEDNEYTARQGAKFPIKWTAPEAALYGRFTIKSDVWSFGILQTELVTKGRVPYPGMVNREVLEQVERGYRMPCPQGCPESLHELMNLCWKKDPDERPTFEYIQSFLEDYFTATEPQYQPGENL
T2 sequence (P12931 whole entry): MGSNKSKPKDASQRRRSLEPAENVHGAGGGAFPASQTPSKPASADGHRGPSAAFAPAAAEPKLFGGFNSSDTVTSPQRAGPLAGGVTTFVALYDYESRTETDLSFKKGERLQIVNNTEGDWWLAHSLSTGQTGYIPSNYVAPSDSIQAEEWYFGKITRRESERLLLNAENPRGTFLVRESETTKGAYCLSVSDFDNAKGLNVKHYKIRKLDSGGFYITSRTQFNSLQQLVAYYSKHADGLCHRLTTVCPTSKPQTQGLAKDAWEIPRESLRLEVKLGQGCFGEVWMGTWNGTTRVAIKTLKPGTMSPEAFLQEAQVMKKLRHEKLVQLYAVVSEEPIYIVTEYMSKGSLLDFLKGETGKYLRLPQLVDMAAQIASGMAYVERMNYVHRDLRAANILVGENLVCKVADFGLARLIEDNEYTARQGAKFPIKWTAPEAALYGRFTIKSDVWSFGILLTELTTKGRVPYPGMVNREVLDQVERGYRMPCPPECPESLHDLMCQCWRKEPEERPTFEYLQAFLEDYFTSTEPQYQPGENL
T3 sequence (P06239 whole entry): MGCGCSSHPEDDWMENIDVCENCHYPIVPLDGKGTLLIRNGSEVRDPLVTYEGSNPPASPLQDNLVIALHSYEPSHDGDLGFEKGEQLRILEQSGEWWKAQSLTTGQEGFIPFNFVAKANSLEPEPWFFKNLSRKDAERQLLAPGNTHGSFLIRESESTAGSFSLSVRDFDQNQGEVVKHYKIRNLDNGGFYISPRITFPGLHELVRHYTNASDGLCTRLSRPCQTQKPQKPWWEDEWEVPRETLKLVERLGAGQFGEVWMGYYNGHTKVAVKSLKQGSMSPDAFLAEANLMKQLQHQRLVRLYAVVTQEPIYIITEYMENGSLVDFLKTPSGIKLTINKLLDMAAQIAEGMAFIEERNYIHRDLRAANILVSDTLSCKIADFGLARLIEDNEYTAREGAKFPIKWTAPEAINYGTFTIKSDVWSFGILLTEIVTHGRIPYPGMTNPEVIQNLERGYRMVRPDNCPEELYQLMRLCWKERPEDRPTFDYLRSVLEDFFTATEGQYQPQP

Structure (SMILES)	IC50 [1] [nM]	IC50 [2] [nM]	IC50 [3] [nM]
Cc1cc2cc(C(=O)c3cnn(-c4cnc(Oc5c(F)cccc5F)cc4C)c3N)[nH]c2cc1NS(=O)(=O)CC(=O)NC(C)C [Example 5-1-136, 2-[[2-[5-amino-1-[6-(2,6-difluorophenoxy)-4-methylpyridin-3-yl]pyrazole-4-carbonyl]-5-methyl-1H-indol-6-yl]sulfamoyl]-N-propan-2-ylacetamide]	1.5	27	23
CC(=O)N1CCC(c2cc3[nH]c(C(=O)c4cnn(-c5c(C)cc(Oc6ccccc6F)cc5F)c4N)cc3cc2C)CC1 [Example 5-1-138, 1-[4-[2-[5-amino-1-[2-fluoro-4-(2-fluorophenoxy)-6-methylphenyl]pyrazole-4-carbonyl]-5-methyl-1H-indol-6-yl]piperidin-1-yl] ethanone]	3.1	68	42
CC(=O)N1CCC(c2cc3[nH]c(C(=O)c4cnn(-c5cnc(Oc6c(F)cccc6F)cc5C)c4N)cc3cc2C)CC1 [Example 5-1-139, 1-[4-[2-[5-amino-1-[6-(2,6-difluorophenoxy)-4-methylpyridin-3-yl]pyrazole-4-carbonyl]-5-methyl-1H-indol-6-yl]piperidin-1-yl]ethanone]	1.8	23	25
Cc1cc2cc(C(=O)c3cnn(-c4c(C)cc(Oc5c(F)cccc5F)cc4F)c3N)[nH]c2cc1NS(C)(=O)=O [Example 5-1-140, N-[2-[5-amino-1-[4-(2,6-difluorophenoxy)-2-fluoro-6-methylphenyl]pyrazole-4-carbonyl]-5-methyl-1H-indol-6-yl]methanesulfonamide]	2.8	48	24
CCc1cc2cc(C(=O)c3cnn(-c4cnc(Oc5c(F)cccc5F)cc4C)c3N)[nH]c2cc1NS(C)(=O)=O [Example 5-1-141, N-[2-[5-amino-1-[6-(2,6-difluorophenoxy)-4-methylpyridin-3-yl]pyrazole-4-carbonyl]-5-ethyl-1H-indol-6-yl]methanesulfonamide]	2.4	75	27
Cc1cc2cc(C(=O)c3cnn(-c4c(C)cc(Oc5c(F)cccc5Cl)cc4F)c3N)[nH]c2cc1NS(C)(=O)=O [Example 5-1-142, N-[2-[5-amino-1-[4-(2-chloro-6-fluorophenoxy)-2-fluoro-6-methylphenyl]pyrazole-4-carbonyl]-5-methyl-1H-indol-6-yl] methanesulfonamide]	5.6	99	52
Cc1cc2cc(C(=O)c3cnn(-c4cnc(Oc5c(F)cccc5F)cc4C)c3N)[nH]c2cc1C1CCN(S(=O)(=O)C2CC2)CC1 [Example 5-1-144, [5-amino-1-[6-(2,6-difluorophenoxy)-4-methylpyridin-3-yl]pyrazol-4-yl]-[6-(1-cyclopropylsulfonylpiperidin-4-yl)-5-methyl-1H-indol-2-yl]methanone]	5.7	81	76
COc1cc2cc(C(=O)c3cnn(-c4cnc(Oc5ccccc5F)cc4C)c3N)[nH]c2cc1Br [Example 5-1-145, [5-amino-1-[6-(2-fluorophenoxy)-4-methylpyridin-3-yl]pyrazol-4-yl]-(6-bromo-5-methoxy-1H-indol-2-yl)methanone]	1.6	16	8.2
Cc1cc(Oc2c(F)cccc2F)ncc1-n1ncc(C(=O)c2cc3cc(OC(F)F)c(Br)cc3[nH]2)c1N [Example 5-1-149, [5-amino-1-[6-(2,6-difluorophenoxy)-4-methylpyridin-3-yl]pyrazol-4-yl]-[6-bromo-5-(difluoromethoxy)-1H-indol-2-yl]methanone]	5	57	43
Cc1cc(-n2ncc(C(=O)c3cc4cc(N5CCOCC5)c(Br)cc4[nH]3)c2N)ccc1Oc1ccccc1F [Example 5-1-151, [5-amino-1-[4-(2-fluorophenoxy)-3-methylphenyl]pyrazol-4-yl]-(6-bromo-5-morpholin-4-yl-1H-indol-2-yl)methanone]	2.9	600	80
Cc1cc(Oc2c(F)cccc2F)ncc1-n1ncc(C(=O)c2cc3cc(N4CCOCC4)c(Br)cc3[nH]2)c1N [Example 5-1-155, [5-amino-1-[6-(2,6-difluorophenoxy)-4-methylpyridin-3-yl]pyrazol-4-yl]-(6-bromo-5-morpholin-4-yl-1H-indol-2-yl)methanone]	1.6	22	12

Molecules with a lower IC50 [1], results first:

IC50 [1] [nM]	IC50 [2] [nM]	IC50 [3] [nM]	Structure (SMILES)
1.3	41	29	COc1cc2cc(C(=O)c3cnn(-c4c(C)cc(Oc5ccccc5F)cc4F)c3N)[nH]c2cc1NS(=O)(=O)CC(=O)NC(C)C [Example 5-1-137, 2-[[2-[5-amino-1-[2-fluoro-4-(2-fluorophenoxy)-6-methylphenyl]pyrazole-4-carbonyl]-5-methoxy-1H-indol-6-yl]sulfamoyl]-N-propan-2-ylacetamide]
1.1	7.4	5.6	Cc1cc2cc(C(=O)c3cnn(-c4ccc(Oc5ccccc5F)cc4C)c3N)[nH]c2cc1C1CCN(S(=O)(=O)C2CC2)CC1 [Example 5-1-131, [5-amino-1-[4-(2-fluorophenoxy)-2-methylphenyl]pyrazol-4-yl]-[6-(1-cyclopropylsulfonylpiperidin-4-yl)-5-methyl-1H-indol-2-yl]methanone]
0.84	12	5.3	Cc1cc(Oc2ccccc2F)ccc1-n1ncc(C(=O)c2cc3cc(F)c(NC4CCN(S(C)(=O)=O)CC4)cc3[nH]2)c1N [Example 5-1-135, [5-amino-1-[4-(2-fluorophenoxy)-2-methylphenyl]pyrazol-4-yl]-[5-fluoro-6-[(1-methylsulfonylpiperidin-4-yl)amino]-1H-indol-2-yl]methanone]
0.71	6.6	3.3	CC(=O)N1CCC(c2cc3[nH]c(C(=O)c4cnn(-c5ccc(Oc6ccccc6F)cc5C)c4N)cc3cc2C)CC1 [Example 5-1-132, 1-[4-[2-[5-amino-1-[4-(2-fluorophenoxy)-2-methylphenyl]pyrazole-4-carbonyl]-5-methyl-1H-indol-6-yl]piperidin-1-yl]ethanone]
0.67	11	4.3	Cc1cc(Oc2ccccc2F)cc(F)c1-n1ncc(C(=O)c2cc3cc(OC4CCN(C(C)C)CC4)c(Br)cc3[nH]2)c1N [Example 5-1-154, [5-amino-1-[2-fluoro-4-(2-fluorophenoxy)-6-methylphenyl]pyrazol-4-yl]-[6-bromo-5-(1-propan-2-ylpipendin-4-yl)oxy-1H-indol-2-yl] methanone]
0.63	6.1	2.5	CC(=O)N1CCC(c2cc3[nH]c(C(=O)c4cnn(-c5cnc(Oc6ccccc6F)cc5C)c4N)cc3cc2C)CC1 [Example 5-1-133, 1-[4-[2-[5-amino-1-[6-(2-fluorophenoxy)-4-methylpyridin-3-yl]pyrazole-4-carbonyl]-5-methyl-1H-indol-6-yl]piperidin-1-yl]ethanone]
0.59	15	11	COc1cc2cc(C(=O)c3cnn(-c4cnc(Oc5c(F)cccc5F)cc4C)c3N)[nH]c2cc1NS(=O)(=O)CC(=O)N1CCOCC1 [Example 5-1-143, N-[2-[5-amino-1-[6-(2,6-difluorophenoxy)-4-methylpyridin-3-yl]pyrazole-4-carbonyl]-5-methoxy-1H-indol-6-yl]-2-morpholin-4-yl-2-oxoethanesulfonamide]
0.57	5.1	12	Cc1cc(Oc2ccccc2F)ccc1-n1ncc(C(=O)c2cc3cc(N4CCOCC4)c(Br)cc3[nH]2)c1N [Example 5-1-147, [5-amino-1-[4-(2-fluorophenoxy)-2-methylphenyl]pyrazol-4-yl]-(6-bromo-5-morpholin-4-yl-1H-indol-2-yl)methanone]
0.57	180	47	Cc1cc(-n2ncc(C(=O)c3cc4cc(OC5CCN(C(C)C)CC5)c(Br)cc4[nH]3)c2N)ccc1Oc1ccccc1F [Example 5-1-148, [5-amino-1-[4-(2-fluorophenoxy)-3-methylphenyl]pyrazol-4-yl]-[6-bromo-5-(1-propan-2-ylpiperidin-4-yl)oxy-1H-indol-2-yl] methanone]
0.53	7.9	3	Cc1cc(Oc2ccccc2F)ncc1-n1ncc(C(=O)c2cc3cc(OC4CCN(C(C)C)CC4)c(Br)cc3[nH]2)c1N [Example 5-1-153, [5-amino-1-[6-(2-fluorophenoxy)-4-methylpyridin-3-yl]pyrazol-4-yl]-[6-bromo-5-(1-propan-2-ylpiperidin-4-yl)oxy-1H-indol-2-yl] methanone]
0.37	4.6	2.1	Cc1cc(Oc2c(F)cccc2F)ncc1-n1ncc(C(=O)c2cc3cc(OC4CCN(C(C)C)CC4)c(Br)cc3[nH]2)c1N [Example 5-1-134, [5-amino-1-[6-(2,6-difluorophenoxy)-4-methylpyridin-3-yl]pyrazol-4-yl]-[6-bromo-5-(1-propan-2-ylpiperidin-4-yl)oxy-1H-indol-2-yl] methanone]
0.27	2.2	5.3	Cc1cc(Oc2ccccc2F)ccc1-n1ncc(C(=O)c2cc3cc(OC4CCN(C(C)C)CC4)c(Br)cc3[nH]2)c1N [Example 5-1-146, [5-amino-1-[4-(2-fluorophenoxy)-2-methylphenyl]pyrazol-4-yl]-[6-bromo-5-(1-propan-2-ylpiperidin-4-yl)oxy-1H-indol-2-yl] methanone]
